Experimental data as given in US20240390660A1, “APPARATUS, SYSTEMS AND METHODS FOR TRANSDERMAL DRUG DELIVERY, PERMEABILITY ENHANCEMENT AND AUGMENTATION” (University of Iowa Research Foundation, priority 2021, published 2024).
Structures can show the parent of a compound that is named as a salt.

Tests used:
[1] = in vivo; cited from earlier work
[2] = In vivo pharmacokinetics studies, dMN + NLX-HCL gel with or without heating pod; set-up: species or system albino Hartley guinea pigs; conditions: for enhancement in plasma concentration achieved with heat (vs no heat): 1 dMN; for plasma concentration, 2 dMN vs 1 dMN: non-heated
Source text: In Vivo Pharmacokinetics Studies. Preliminary in vivo data were collected in male (n=3) and female (n=2) albino Hartley guinea pigs (a common small animal model for dermal drug studies). All study procedures were IACUC approved. A crossover study design was used, dMN with and without use of heat (described in Table 5). The dorsal hair was clipped (not shaved) a day prior to studies. Either one or two dMN arrays (for a total of 100 or 200 dMNs total) were applied to the dorsal skin of the animal using gentle thumb pressure, and the backing of the dMN was removed.
The heat reaction was initiated by removing the protective tape cover. This was the same approach and conditions as used for the in vitro studies. […] Blood samples were collected at 0, 5, 10, 15, 30, 60, 75, 90, and 120 min. Plasma was separated from the blood immediately after collection and stored at −80° C. until analysis. A thermocouple probe in contact with the skin during the in vivo studies was used to record the skin temperature at the same timepoints as blood sampling.
The mixture was vortexed for 60 sec and centrifuged at 10,000 rpm for 15 min. The supernatant ethyl acetate layer was pipetted off and placed in a 5 mL glass tube under dry nitrogen to evaporate the organic layer. The dried residues were reconstituted with 100 μL 0.1% formic acid and analyzed using LC/MS.
Data Analysis. […] It is understood that when discussed herein, 1 dMN refers to a condition with a single, 100 microneedle array and 2 dMN refers to a condition with two arrays. All conditions were compared with and without the heating pod. […] For all analyses, p<0.05 was considered statistically significant.

Row | SMILES | NLX population clearance [1] | enhancement in plasma concentration achieved with heat (vs no heat) ([2]; 5 min) | enhancement in plasma concentration achieved with heat (vs no heat) ([2]; 15 min) | enhancement in plasma concentration achieved with heat (vs no heat) ([2]; 30 min) | enhancement in plasma concentration achieved with heat (vs no heat) ([2]; 60 min) | AUC with heat compared to the same conditions without heat ([2]; 2 dMN, 0-5, 0-15, 0-30 and 0-60 min, p<0.05) | enhancement of plasma concentrations by applied heat ([2]; 2 dMN, 5 min) | enhancement of plasma concentrations by applied heat ([2]; 2 dMN, 15 min) | enhancement of plasma concentrations by applied heat ([2]; 2 dMN, 30 min) | enhancement of plasma concentrations by applied heat ([2]; 2 dMN, 60 min) | normalized plasma concentrations, heated vs dMN without heat ([2]; 2 or 1 dMN arrays) | normalized plasma concentrations, 1 vs 2 dMN ([2]; heated or not heated, at 5, 15, 30 and 60 min) | AUC 2 dMN vs 1 dMN ([2]; heated, all time ranges tested, p<0.05) | plasma concentration, 2 dMN vs 1 dMN ([2]; 5 min) | plasma concentration, 2 dMN vs 1 dMN ([2]; 15 min) | plasma concentration, 2 dMN vs 1 dMN ([2]; 30 min) | plasma concentration, 2 dMN vs 1 dMN ([2]; 60 min)
1 | C=CCN1CC[C@]23c4c5ccc(O)c4O[C@H]2C(=O)CC[C@@]3(O)[C@H]1C5 [NLX, naloxone] | 91 L/h | – | – | – | – | – | – | – | – | – | – | – | – | – | – | – | –
2 | C=CCN1CC[C@]23c4c5ccc(O)c4O[C@H]2C(=O)CC[C@@]3(O)[C@H]1C5 [NLX-HCL, naloxone hydrochloride] | – | 2.4 | 1.3 | 1.2 | 1.4 | significantly higher | 2.1 × | 2.2 × | 2.1 × | 1.8 × | not significantly higher | no statistically significant differences | significantly higher | 2.1 × | 1.6 × | 2.0 × | 2.3 ×
